Data reported in patent US20210283249A1, “COMBINATION THERAPY FOR CANCER WITH EXON 14 SKIPPING MUTATION(S) OR EXON 14 SKIPPING PHENOTYPE” (Eli Lilly and Company, priority 2016, published 2021).
Like-named read-outs stand apart in the source and are kept apart here.

Legend:
[1] = system: Hs746t-derived xenograft of human gastric carcinoma; assay: Hs746t xenograft model, Example 1 (combination vs monotherapy); type: in vivo, mice
Protocol: (§1) Hs746t is a gastric cancer cell line known to have MET exon 14 skipping mutation(s) and MET amplification (Asaoka et al., Biochem Biophys Res Commun 394:1042-1046).
(§2) Female athymic nude mice (Envigo) are used for this study. Food and water are available ad libitum. Animals are acclimated for 1 week prior to any experimental manipulation. The study is performed in accordance with AAALAC accredited institutional guidelines.
Merestinib is formulated as a solution in 10% PEG 400/90% (20% Captisol in water). Emibetuzumab is diluted in phosphate buffered saline (PBS). Solutions are freshly prepared every 7 days.
Obtain Hs746t cells from ATCC (American Type Culture Collection) and maintain in RPMI 1640 with 10% fetal bovine serum at 37° C. in 5% CO2. Expand cells in culture, harvest, and wash in Hank's Balanced Salt Solution (HBSS, GIBC®). Implant sub-confluent […] cells into 60 female nu/nu mice at a concentration of 1×10^7 cells in 0.2 ml HBSS subcutaneously into the hind flank of the animal.
Administer merestinib by oral gavage at either 6 mg/kg or 12 mg/kg in a dose volume of 0.2 mL in 10% polyethylene glycol 400/90% of a mixture of 20% Captisol in water, and antibody treatments by intraperitoneal injection (IP) starting on day 12 after tumor cell implantation when average tumor volume of 350 mm^3 and ending on Day 33. Inject animals IP in a dosing volume of 10 mg/kg. After 14 days of dosing (Study Day 27), the animals in the control group are sacrificed because of tumor volumes exceeding >2000 mm^3. After the 28-day dosing period, animals in the single agent arms are sacrificed. […]
In both studies, animals are sacrificed using CO2 and cervical dislocation when tumors grow larger than 2000 mm^3, or at the end of study.
Record tumor growth and body weight changes at least twice a week. Body weight measurement during the course of the study, is a general indicator of tolerability.
(§3) Measure tumor growth with calipers and record body weights twice weekly. Calculate tumor volumes by the formula Volume (mm^3)=L×W^2 (π/6) where L represents the larger diameter and W the smaller diameter. Calculate T/C % using the formula T/C %=100×ΔT/ΔC. Where ΔT=mean tumor volume of the drug-treated group on the final day of the study−mean tumor volume of the drug-treated group on the initial day of the dosing and ΔC=mean tumor volume of the control group on the final day of the study−mean tumor volume of the control group on the initial day of the dosing. Calculate changes in body weight by the formula (Weight on observation day−Weight on day 12)/Weight on Day 12×100. Calculate test for significant differences between treatment groups by RMANOVA using the JMP (v.9.0.3) statistical package (SAS Institute Inc., Cary, N.C., USA).
The p-value from the 2×2 interaction test on day 28 is not significant at p=0.654. All pairwise comparisons between the combination group and each single agent group on day 33 are also statistically significant. […] Full statistical analysis is not feasible as the animals in the vehicle control groups were removed after 14 days of dosing as the animals are sacrificed due to tumor burden.

[2] = system: Hs746t-derived xenograft of human gastric carcinoma; assay: Hs746t xenograft model, Example 2 (sequential and concurrent administration); type: in vivo, mice
Protocol: as §2
Merestinib is formulated as a solution in 10% PEG 400/90% (20% Captisol in water). Emibetuzumab and IgG control are diluted in PBS. Solutions are freshly prepared every 7 days.
Obtain, maintain, expand, harvest, and wash Hs746t cell as in Example 1. Implant cells into 36 female nu/nu mice at a concentration of 2×10^6 cells in 0.2 ml HBSS subcutaneously into the hind flank of the animal. […] After the 28-day dosing period, animals in the single agent arms are sacrificed. Tumors in the animals in the combination treatment groups are monitored for continued growth or regrowth of tumors.
In these studies, animals are sacrificed using CO2 and cervical dislocation when tumors grow larger than 2000 mm^3, or at the end of study.
Measure tumor volumes and body weight at least twice weeky. Body weight measurement during the course of the study, is a general indicator of tolerability.
as §3, with “RM ANOVA” for “RMANOVA”
Transform tumor volume to the log scale to equalize variance across time and treatment groups. Analyze the log volume data with a two-way repeated measures analysis of variance by time and treatment using the MIXED procedures in SAS software (Version 9.3). The correlation model for the repeated measures is spatial power. Compare treated groups to the control group at each time point. The MIXED procedure is also used separately for each treatment group to calculate adjusted means and standard errors at each time point. Both analyses account for the autocorrelation within each animal and the loss of data that occurs when animals are removed or lost before the end of the study. The adjusted means and standard errors are plotted for each treatment group versus time. […]

pMET = pMET in Hs746t cells; type: cell-based, human
Hs746t cells = assay: Hs746t cell proliferation; type: cell-based, human
Source text: as §1

| Molecule | tumor response course ([1]; merestinib 6 mg/kg qd orally) | T/C ([1]; merestinib 6 mg/kg qd orally, after 21 day dosing) | mice with no tumor regrowth ([1]; merestinib 12 mg/kg cohort, during the 5 weeks post-treatment) | tumor regression ([1]; merestinib 12 mg/kg qd orally, after 21 day dosing) | tumor volume on re-growth while on treatment ([2]; merestinib 6 mg/kg qd single agent, by Day 37) | maximal tumor regression ([2]; merestinib 6 mg/kg qd, Day 27 (7 days of dosing)) | effect on pMET (pMET; at 65-100 nM) | IC50 (Hs746t cells; Homo sapiens) | tumor response course ([1]; emibetuzumab 10 mg/kg IP qw) | transient tumor regression ([1]; emibetuzumab 10 mg/kg IP qw, after 3 doses) | maximum tumor regression ([2]; emibetuzumab 10 mg/kg qw, Day 27) | maximum tumor regression ([2]; emibetuzumab 20 mg/kg qw, Day 37) | effect on pMET expression (pMET; at 130-650 nM) | IC50 (Hs746t cells) |
| --- | --- | --- | --- | --- | --- | --- | --- | --- | --- | --- | --- | --- | --- | --- |
| Cc1ccc(C(=O)Nc2ccc(Oc3cc4cnn(C)c4cc3-c3cn[nH]c3)c(F)c2)c(=O)n1-c1ccc(F)cc1 [merestinib, N-(3-Fluoro-4-(1-methyl-6-(1H-pyrazol-4-yl)-1H-indazol-5-yloxy)phenyl)-1-(4-fluorophenyl)-6-methyl-2-oxo-1,2-dihydropyridine-3-carboxamide] | transient tumor regression followed by re-growth while on treatment | 18.3% | 6/7 | 91.8% | about 500 mm^3 | 30.2% | totally eliminates | 0.034 µM |  |  |  |  |  |  |
| emibetuzumab: C8-H241-IgG4 anti-human MET antibody: two light chains of SEQ ID NO: 5 and two heavy chains of SEQ ID NO: 7 |  |  |  |  |  |  |  |  | tumors are observed to regrow while on treatment | 37.7% | 16.0% | 58.9% | no effect | > 0.1 µM |
